The numbers were not newly measured in patent publication US20250228953A1, “INTRACELLULAR TARGETING OF OLIGONUCLEOTIDES” (Entrada Therapeutics, Inc., priority 2021, published 2025), which cites them from elsewhere.

For series [1] the following is noted: amino acid hydrophobicity scale; cited from earlier work.
The conditions of series [2]: as reported by Tien, cited from earlier work; for SASA, Empirical / SASA, Theoretical: et al.

For the molecule `NC(=O)C[C@H](N)C(=O)O` [Asn, Asparagine], in series [1], the “Hydrophobicity, Eisenberg and Weiss” value is reported as −0.64; the “Hydrophobicity, Engleman et al.” value was −4.8; the “Hydrophobicity, Janin” value is on record as −0.5; the “Hydrophobicity, Kyrie and Doolittle” value is −3.5. In addition, in series [2], the “SASA, Empirical” value was 187.0 Å^2; the “SASA, Theoretical” value was 195.0 Å^2; the “SASA, Miller et al. (1987)” value was 158.0 Å^2; the “SASA, Rose et al. (1985)” value was 165.5 Å^2.

Regarding `N[C@@H](CCC(=O)O)C(=O)O` [Glu, Glutamic acid], in series [1], the “Hydrophobicity, Eisenberg and Weiss” value was −0.62; the “Hydrophobicity, Engleman et al.” value is on record as −8.2; the “Hydrophobicity, Janin” value was −0.7; the “Hydrophobicity, Kyrie and Doolittle” value is given as −3.5. Also, in series [2], the “SASA, Empirical” value is 214.0 Å^2; the “SASA, Miller et al. (1987)” value was 183.0 Å^2; the “SASA, Rose et al. (1985)” value was 186.2 Å^2.

For `N=C(N)NCCC[C@H](N)C(=O)O` [Arginine, arginine], in series [2], the “SASA, Empirical” value is recorded as 265.0 Å^2; the “SASA, Theoretical” value is 274.0 Å^2; the “SASA, Miller et al. (1987)” value was 241.0 Å^2; the “SASA, Rose et al. (1985)” value is listed as 256.0 Å^2.

As for `NCCCC[C@H](N)C(=O)O` [Lys, Lysine], in series [1], the “Hydrophobicity, Eisenberg and Weiss” value is listed as −1.10; the “Hydrophobicity, Engleman et al.” value is on record as −8.8; the “Hydrophobicity, Janin” value is reported as −1.8; the “Hydrophobicity, Kyrie and Doolittle” value is given as −3.9. In series [2], the “SASA, Empirical” value was 230.0 Å^2; the “SASA, Theoretical” value is 236.0 Å^2; the “SASA, Miller et al. (1987)” value is reported as 211.0 Å^2; the “SASA, Rose et al. (1985)” value is 225.8 Å^2.

As for `C[C@H](N)C(=O)O` [Ala, Alanine], in series [1], the “Hydrophobicity, Eisenberg and Weiss” value is 0.25; the “Hydrophobicity, Engleman et al.” value is 1.6; the “Hydrophobicity, Janin” value is listed as 0.3; the “Hydrophobicity, Kyrie and Doolittle” value is recorded as 1.8. Also, in series [2], the “SASA, Empirical” value is 121.0 Å^2; the “SASA, Theoretical” value is listed as 129.0 Å^2; the “SASA, Miller et al. (1987)” value is recorded as 113.0 Å^2; the “SASA, Rose et al. (1985)” value is on record as 118.1 Å^2.

On to `CSCC[C@H](N)C(=O)O` [Met, Methionine], for which, in series [1], the “Hydrophobicity, Eisenberg and Weiss” value was 0.26; the “Hydrophobicity, Engleman et al.” value is listed as 3.4; the “Hydrophobicity, Janin” value is recorded as 0.4; the “Hydrophobicity, Kyrie and Doolittle” value was 1.9. Further, in series [2], the “SASA, Empirical” value is 203.0 Å^2; the “SASA, Theoretical” value is listed as 224.0 Å^2; the “SASA, Miller et al. (1987)” value is given as 204.0 Å^2; the “SASA, Rose et al. (1985)” value is given as 203.4 Å^2.

Turning to `N[C@@H](Cc1ccccc1)C(=O)O` [Phe, Phenylalanine], in series [1], the “Hydrophobicity, Eisenberg and Weiss” value is 0.61; the “Hydrophobicity, Engleman et al.” value was 3.7; the “Hydrophobicity, Janin” value is recorded as 0.5; the “Hydrophobicity, Kyrie and Doolittle” value is on record as 2.8. For the same molecule, in series [2], the “SASA, Empirical” value is reported as 228.0 Å^2; the “SASA, Theoretical” value is on record as 240.0 Å^2; the “SASA, Miller et al. (1987)” value is reported as 218.0 Å^2; the “SASA, Rose et al. (1985)” value is 222.8 Å^2.

On to `C[C@@H](O)[C@H](N)C(=O)O` [Thr, Threonine], for which, in series [1], the “Hydrophobicity, Eisenberg and Weiss” value is −0.18; the “Hydrophobicity, Engleman et al.” value is listed as 1.2; the “Hydrophobicity, Janin” value is on record as −0.2; the “Hydrophobicity, Kyrie and Doolittle” value is −0.7. For the same molecule, in series [2], the “SASA, Empirical” value is recorded as 163.0 Å^2; the “SASA, Theoretical” value is 172.0 Å^2; the “SASA, Miller et al. (1987)” value is recorded as 146.0 Å^2; the “SASA, Rose et al. (1985)” value was 152.5 Å^2.

`N[C@@H](Cc1c[nH]c2ccccc12)C(=O)O` [Trp, Tryptophan]: in series [1], the “Hydrophobicity, Eisenberg and Weiss” value is 0.37; the “Hydrophobicity, Engleman et al.” value is listed as 1.9; the “Hydrophobicity, Janin” value is on record as 0.3; the “Hydrophobicity, Kyrie and Doolittle” value is −0.9. Further, in series [2], the “SASA, Empirical” value is on record as 264.0 Å^2; the “SASA, Theoretical” value was 285.0 Å^2; the “SASA, Miller et al. (1987)” value is recorded as 259.0 Å^2; the “SASA, Rose et al. (1985)” value was 266.3 Å^2.

As for `N[C@@H](Cc1ccc(O)cc1)C(=O)O` [Tyr, Tyrosine], in series [1], the “Hydrophobicity, Eisenberg and Weiss” value is listed as 0.02; the “Hydrophobicity, Engleman et al.” value was −0.7; the “Hydrophobicity, Janin” value is −0.4; the “Hydrophobicity, Kyrie and Doolittle” value is on record as −1.3. In series [2], the “SASA, Empirical” value is recorded as 255.0 Å^2; the “SASA, Theoretical” value is on record as 263.0 Å^2; the “SASA, Miller et al. (1987)” value was 229.0 Å^2; the “SASA, Rose et al. (1985)” value was 236.8 Å^2.

In the case of `NCC(=O)O` [Gly, Glycine], in series [2], the “SASA, Empirical” value is reported as 97.0 Å^2; the “SASA, Theoretical” value is 104.0 Å^2; the “SASA, Miller et al. (1987)” value was 85.0 Å^2; the “SASA, Rose et al. (1985)” value is reported as 88.1 Å^2.

For the molecule `N[C@@H](CC(=O)O)C(=O)O` [Asp, Aspartic acid], in series [1], the “Hydrophobicity, Eisenberg and Weiss” value was −0.72; the “Hydrophobicity, Engleman et al.” value is listed as −9.2; the “Hydrophobicity, Janin” value is −0.6; the “Hydrophobicity, Kyrie and Doolittle” value is on record as −3.5. Also, in series [2], the “SASA, Empirical” value is recorded as 187.0 Å^2; the “SASA, Theoretical” value is recorded as 193.0 Å^2; the “SASA, Miller et al. (1987)” value is listed as 151.0 Å^2; the “SASA, Rose et al. (1985)” value is 158.7 Å^2.

For `N[C@@H](Cc1c[nH]cn1)C(=O)O` [His, Histidine], in series [1], the “Hydrophobicity, Eisenberg and Weiss” value is reported as −0.40; the “Hydrophobicity, Engleman et al.” value was −3.0; the “Hydrophobicity, Janin” value is −0.1; the “Hydrophobicity, Kyrie and Doolittle” value is reported as −3.2. Further, in series [2], the “SASA, Empirical” value is 216.0 Å^2; the “SASA, Theoretical” value is listed as 224.0 Å^2; the “SASA, Miller et al. (1987)” value is listed as 194.0 Å^2; the “SASA, Rose et al. (1985)” value is on record as 202.5 Å^2.

Turning to `N=C(N)NCCC[C@H](N)C(=O)O` [Arg, Arginine], in series [1], the “Hydrophobicity, Eisenberg and Weiss” value is listed as −1.80; the “Hydrophobicity, Engleman et al.” value is recorded as −12.3; the “Hydrophobicity, Janin” value was −1.4; the “Hydrophobicity, Kyrie and Doolittle” value is recorded as −4.5.

For the molecule `N[C@@H](CO)C(=O)O` [Ser, Serine], in series [1], the “Hydrophobicity, Eisenberg and Weiss” value was −0.26; the “Hydrophobicity, Engleman et al.” value is on record as 0.6; the “Hydrophobicity, Janin” value is given as −0.1; the “Hydrophobicity, Kyrie and Doolittle” value is given as −0.8. In addition, in series [2], the “SASA, Empirical” value is 143.0 Å^2; the “SASA, Theoretical” value was 155.0 Å^2; the “SASA, Miller et al. (1987)” value is on record as 122.0 Å^2; the “SASA, Rose et al. (1985)” value was 129.8 Å^2.

For the molecule `O=C(O)[C@@H]1CCCN1` [Pro, Proline], in series [2], the “SASA, Empirical” value is listed as 154.0 Å^2; the “SASA, Miller et al. (1987)” value is 143.0 Å^2; the “SASA, Rose et al. (1985)” value is given as 146.8 Å^2.

Regarding `N[C@@H](CS)C(=O)O` [Cys, Cysteine], in series [1], the “Hydrophobicity, Eisenberg and Weiss” value was 0.04; the “Hydrophobicity, Engleman et al.” value is on record as 2.0; the “Hydrophobicity, Janin” value was 0.9; the “Hydrophobicity, Kyrie and Doolittle” value is on record as 2.5. In addition, in series [2], the “SASA, Empirical” value was 148.0 Å^2; the “SASA, Theoretical” value is 167.0 Å^2; the “SASA, Miller et al. (1987)” value is on record as 140.0 Å^2; the “SASA, Rose et al. (1985)” value was 146.1 Å^2.

Take `CC[C@H](C)[C@H](N)C(=O)O` [Ile, Isoleucine]: in series [1], the “Hydrophobicity, Eisenberg and Weiss” value is given as 0.73; the “Hydrophobicity, Engleman et al.” value is listed as 3.1; the “Hydrophobicity, Janin” value is recorded as 0.7; the “Hydrophobicity, Kyrie and Doolittle” value is reported as 4.5. In series [2], the “SASA, Empirical” value was 195.0 Å^2; the “SASA, Theoretical” value is given as 197.0 Å^2; the “SASA, Miller et al. (1987)” value is 182.0 Å^2; the “SASA, Rose et al. (1985)” value is listed as 181.0 Å^2.

For the molecule `CC(C)[C@H](N)C(=O)O` [Val, Valine], in series [1], the “Hydrophobicity, Eisenberg and Weiss” value was 0.54; the “Hydrophobicity, Engleman et al.” value is reported as 2.6; the “Hydrophobicity, Janin” value is 0.6; the “Hydrophobicity, Kyrie and Doolittle” value is recorded as 4.2. For the same molecule, in series [2], the “SASA, Empirical” value is listed as 165.0 Å^2; the “SASA, Theoretical” value was 174.0 Å^2; the “SASA, Miller et al. (1987)” value is 160.0 Å^2; the “SASA, Rose et al. (1985)” value is listed as 164.5 Å^2.
